For this assay, the target named is T1, F508delCFTR (Homo sapiens, UniProt P13569, DEL508-508).
T1 construct: expressed in transfected cells; host or cells: CFBE41o- human lung-derived epithelial cells (CFBE4lo-F508delCFTR-HRP), doxycycline-inducible
Description: Cell Surface Expression-Horse Radish Peroxidase (CSE-HRP) Assay.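 As to Maximum % activity (with co-corrector): co-corrector and positive control are both the same reference corrector at 2 µM.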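 As to Maximum % activity (without co-corrector): percent of the 2 µM on-plate positive control corrector response above DMSO.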 The note with it: CSE-HRP; for Maximum % activity (with co-corrector): with co-corrector (2 μM); for Maximum % activity (with co-corrector) / Emax: maximum at any tested concentration, normalized to on-plate positive control; for Emax: without co-corrector, read-out: Maximum % activity (without co-corrector). In kind it is cell-based.

[1] abbreviates: test compound without co-corrector, read-out: EC50 (without co-corrector).
The mark [2] stands for this setting: with co-corrector (2 μM of 3-[(2R,4R)-4-({[1-(2,2-difluoro-1,3-benzodioxol-5-yl)cyclopropyl]carbonyl}amino)-7-methoxy-3,4-dihydro-2H-chromen-2-yl]benzoic acid), read-out: EC50 (with co-corrector).

Each structure is given as a SMILES string. Like-named read-outs stand apart in the source and are kept apart here. Some results are limits rather than exact numbers.

For orientation: EC50 means the concentration at which the effect is half-maximal.

T1 sequence (P13569 with tags, fused parts or gaps DEL508-508): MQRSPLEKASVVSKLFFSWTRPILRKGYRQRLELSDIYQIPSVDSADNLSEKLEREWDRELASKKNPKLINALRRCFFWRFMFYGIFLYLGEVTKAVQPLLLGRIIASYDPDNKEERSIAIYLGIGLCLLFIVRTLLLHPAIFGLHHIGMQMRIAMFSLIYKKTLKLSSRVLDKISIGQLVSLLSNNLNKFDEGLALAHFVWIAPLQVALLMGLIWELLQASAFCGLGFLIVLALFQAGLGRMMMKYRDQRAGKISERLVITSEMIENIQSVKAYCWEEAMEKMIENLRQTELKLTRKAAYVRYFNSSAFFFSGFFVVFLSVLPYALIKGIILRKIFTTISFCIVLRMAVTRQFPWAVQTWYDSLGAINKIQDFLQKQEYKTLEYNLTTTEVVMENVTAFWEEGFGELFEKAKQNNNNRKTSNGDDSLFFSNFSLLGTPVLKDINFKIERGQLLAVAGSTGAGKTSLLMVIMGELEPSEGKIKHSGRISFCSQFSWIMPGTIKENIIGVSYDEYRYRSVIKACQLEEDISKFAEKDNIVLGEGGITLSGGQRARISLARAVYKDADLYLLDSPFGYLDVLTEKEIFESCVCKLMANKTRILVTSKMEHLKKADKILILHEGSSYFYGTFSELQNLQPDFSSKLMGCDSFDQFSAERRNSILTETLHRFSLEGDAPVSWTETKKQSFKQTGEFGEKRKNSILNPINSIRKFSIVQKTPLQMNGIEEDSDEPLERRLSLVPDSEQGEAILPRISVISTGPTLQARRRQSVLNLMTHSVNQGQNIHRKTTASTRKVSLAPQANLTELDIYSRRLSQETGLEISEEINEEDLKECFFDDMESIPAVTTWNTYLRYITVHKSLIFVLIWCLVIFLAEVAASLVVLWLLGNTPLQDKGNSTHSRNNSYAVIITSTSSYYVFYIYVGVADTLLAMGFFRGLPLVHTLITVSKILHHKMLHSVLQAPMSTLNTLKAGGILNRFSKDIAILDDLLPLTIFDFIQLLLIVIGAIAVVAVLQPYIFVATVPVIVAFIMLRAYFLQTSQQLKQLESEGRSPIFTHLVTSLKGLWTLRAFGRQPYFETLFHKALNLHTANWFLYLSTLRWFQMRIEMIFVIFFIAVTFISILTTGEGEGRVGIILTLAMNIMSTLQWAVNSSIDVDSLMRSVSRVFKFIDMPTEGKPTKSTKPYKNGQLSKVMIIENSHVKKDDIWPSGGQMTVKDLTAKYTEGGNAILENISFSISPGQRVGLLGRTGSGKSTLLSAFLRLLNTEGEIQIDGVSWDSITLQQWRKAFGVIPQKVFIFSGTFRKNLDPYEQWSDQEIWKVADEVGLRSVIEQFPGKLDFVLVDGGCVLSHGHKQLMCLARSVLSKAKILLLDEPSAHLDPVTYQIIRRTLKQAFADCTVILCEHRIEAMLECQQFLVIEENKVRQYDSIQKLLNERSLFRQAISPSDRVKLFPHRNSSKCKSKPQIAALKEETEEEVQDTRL

As to `COc1ncc(C2CCC2)cc1CN[C@H]1[C@H](C(C)(C)C)[C@@H](C(=O)O)N(C(=O)[C@H]2CCCCO2)[C@H]1c1ccccc1C` [Example I-266], the “Maximum % activity (with co-corrector)” value is on record as “+++ (≥350)” and the Emax was > 200%. Also, the EC50 under setting [1] lay in the range of 1 to 10 µM. Further, under setting [2], the EC50 lay in the range of 1 to 10 µM.

In the case of `COc1ccccc1C1(CN[C@H]2[C@H](C(C)(C)C)[C@@H](C(=O)O)N(C(=O)OC(C)C)[C@H]2c2ccccc2)CCOCC1` [Example I-267], the “Maximum % activity (with co-corrector)” value was “+ (<150)” and the Emax is < 100%. Further, under setting [1], the concentration giving a half-maximal response (EC50) was > 10 µM. In addition, the EC50 under setting [2] was in the range of 1 to 10 µM.

Turning to `CC(C)OC(=O)N1[C@H](C(=O)O)[C@@H](C(C)(C)C)[C@H](NCC2CCCN(c3ccc(C(F)(F)F)cc3)C2)[C@@H]1c1ccccc1` (stereo partly shown) [Example I-268], the “Maximum % activity (with co-corrector)” value was “+++ (≥350)” and the Emax was < 100%. The EC50 under setting [1] was in the range of 1 to 10 µM. Under setting [2], the concentration giving a half-maximal response (EC50) fell in the range of 1 to 10 µM.

For the molecule `COc1ccc(C(F)(F)F)cc1CN[C@H]1[C@H](C(C)(C)C)[C@@H](C(=O)O)N(C(=O)[C@@H]2CCCO2)[C@H]1c1cccnc1C1CC1` [Example I-269], the “Maximum % activity (with co-corrector)” value is “+++ (≥350)” and the Emax was in the range of 100 to 200%. Besides, under setting [1], the concentration giving a half-maximal response (EC50) was in the range of 1 to 10 µM. The concentration giving a half-maximal response (EC50) under setting [2] lay within 1 to 10 µM.

With `COc1ncc(C(F)(F)F)cc1CN[C@H]1[C@H](C(C)(C)C)[C@@H](C(=O)O)N(C(=O)C2CC2)[C@H]1c1ccccc1C(C)C` [Example I-271], the “Maximum % activity (with co-corrector)” value is “+++ (≥350)” and the Emax was > 200%. Moreover, the concentration giving a half-maximal response (EC50) under setting [1] lay within 1 to 10 µM. Also, the concentration for a half-maximal effect (EC50) under setting [2] was 1 to 10 µM.

Consider `COc1ncc(C(F)(F)F)cc1CN[C@H]1[C@H](C(C)(C)C)[C@@H](C(=O)O)N(C(=O)C23CC(C2)C3)[C@H]1c1ccccc1C(C)C` [Example I-272], for which the “Maximum % activity (with co-corrector)” value is “+++ (≥350)” and the Emax was 100 to 200%. In addition, under setting [1], the EC50 lay within 1 to 10 µM. Moreover, the 50% effective concentration (EC50) under setting [2] is < 1 µM.

`COc1ncc(C(F)(F)F)cc1CN[C@H]1[C@H](C(C)(C)C)[C@@H](C(=O)O)N(C(=O)C2CCC2)[C@H]1c1ccccc1C(C)C` [Example I-273]: the “Maximum % activity (with co-corrector)” value is recorded as “+++ (≥350)” and the Emax was > 200%. The EC50 under setting [1] lay within 1 to 10 µM. In addition, the EC50 under setting [2] was < 1 µM.

As for `CCOc1ccc(Br)cc1CN[C@H]1[C@H](C(C)(C)C)[C@@H](C(=O)O)N(C(=O)OC(C)C)[C@H]1c1cccnc1N1CCC1` [Example I-274], the “Maximum % activity (with co-corrector)” value is listed as “+++ (≥350)” and the Emax lay in the range of 100 to 200%. The EC50 under setting [1] was in the range of 1 to 10 µM. Also, under setting [2], the EC50 was 1 to 10 µM.

Take `COc1cc(C(F)(F)F)ccc1CN[C@H]1[C@H](C(C)(C)C)[C@@H](C(=O)O)N(C(=O)OC(C)C)[C@H]1c1cccnc1N1CCC1` [Example I-275]: the “Maximum % activity (with co-corrector)” value is on record as “+++ (≥350)” and the Emax was > 200%. The EC50 under setting [1] lay in the range of 1 to 10 µM. Under setting [2], the EC50 was in the range of 1 to 10 µM.

Take `COc1ncccc1NC1CC(N[C@H]2[C@H](C(C)(C)C)[C@@H](C(=O)O)N(C(=O)OC(C)C)[C@H]2c2ccccc2C2CC2)C1` (stereo partly shown) [Example I-276]: the “Maximum % activity (with co-corrector)” value was “+++ (≥350)” and the Emax lay within 100 to 200%. Moreover, under setting [1], the EC50 is 1 to 10 µM. Also, under setting [2], the EC50 lay within 1 to 10 µM.

On to `COc1ccc(C(C)(C)C)cc1CN[C@H]1[C@H](C(C)(C)C)[C@@H](C(=O)O)N(C(=O)C2CCC2)[C@H]1c1ccccc1C(F)(F)F` [Example I-277], for which the “Maximum % activity (with co-corrector)” value is “+++ (≥350)” and the Emax was 100 to 200%. Besides, the concentration giving a half-maximal response (EC50) under setting [1] was in the range of 1 to 10 µM. Under setting [2], the EC50 fell in the range of 1 to 10 µM.

As to `COc1ncc(C2CCC2)cc1CN[C@H]1[C@H](C(C)(C)C)[C@@H](C(=O)O)N(C(=O)C2CCC2)[C@H]1c1ccccc1C(F)(F)F` [Example I-278], the “Maximum % activity (with co-corrector)” value is “++ (≥150 and <350)”; the Emax is < 100%. Further, the half-maximal effective concentration (EC50) under setting [1] is 1 to 10 µM. Moreover, under setting [2], the EC50 is 1 to 10 µM.

Consider `COc1ccc(C2(C)CCC2)cc1CN[C@H]1[C@H](C(C)(C)C)[C@@H](C(=O)O)N(C(=O)C2CCC2)[C@H]1c1ccccc1C(F)(F)F` [Example I-279], for which the “Maximum % activity (with co-corrector)” value is reported as “+++ (≥350)” and the Emax was in the range of 100 to 200%. Besides, the EC50 under setting [1] was in the range of 1 to 10 µM. For the same molecule, the 50% effective concentration (EC50) under setting [2] was in the range of 1 to 10 µM.

For `COc1ncc(C(F)(F)F)cc1CN[C@H]1[C@H](C(C)(C)C)[C@@H](C(=O)O)N(C(=O)C2CCC2)[C@H]1c1ccccc1C(F)(F)F` [Example I-280], the “Maximum % activity (with co-corrector)” value is “++ (≥150 and <350)”; the Emax was < 100%. Besides, the EC50 under setting [1] lay in the range of 1 to 10 µM. Under setting [2], the EC50 lay in the range of 1 to 10 µM.

As to `COc1ncc(C2CCC2)cc1CN[C@H]1[C@H](C(C)(C)C)[C@@H](C(=O)O)N(C(=O)[C@@H]2CCCO2)[C@H]1c1cccnc1N(C)C` [Example I-281], the “Maximum % activity (with co-corrector)” value was “+++ (≥350)” and the Emax lay in the range of 100 to 200%. In addition, the concentration for a half-maximal effect (EC50) under setting [1] was 1 to 10 µM. Also, the EC50 under setting [2] lay in the range of 1 to 10 µM.

Turning to `COc1ccc(C2(C)CCC2)cc1CN[C@H]1[C@H](C(C)(C)C)[C@@H](C(=O)O)N(C(=O)[C@@H]2CCCO2)[C@H]1c1cccnc1N(C)C` [Example I-283], the “Maximum % activity (with co-corrector)” value is “+++ (≥350)” and the Emax was > 200%. The EC50 under setting [1] was in the range of 1 to 10 µM. Besides, under setting [2], the concentration giving a half-maximal response (EC50) was in the range of 1 to 10 µM.

Take `COc1ccc(C(C)(C)C)cc1CN[C@H]1[C@H](C(C)(C)C)[C@@H](C(=O)O)N(C(=O)[C@@H]2CCCO2)[C@H]1c1cccnc1N(C)C` [Example I-284]: the “Maximum % activity (with co-corrector)” value is on record as “+++ (≥350)” and the Emax was > 200%. Also, under setting [1], the 50% effective concentration (EC50) is 1 to 10 µM. Further, the EC50 under setting [2] lay within 1 to 10 µM.

Regarding `CC(C)c1ccccc1[C@H]1[C@@H](NCc2cc(C(C)(C)C)ccc2O)[C@H](C(C)(C)C)[C@@H](C(=O)O)N1C(=O)[C@@H]1CCCO1` [Example I-285], the “Maximum % activity (with co-corrector)” value is “+ (<150)” and the Emax was < 100%. For the same molecule, under setting [1], the EC50 is > 10 µM. In addition, the EC50 under setting [2] was < 1 µM.

As to `COc1ncc(C2CCC2)cc1CN[C@H]1[C@H](C(C)(C)C)[C@@H](C(=O)O)N(C(=O)[C@@H]2CCCO2)[C@H]1c1ccccc1C(F)(F)F` [Example I-286], the “Maximum % activity (with co-corrector)” value is listed as “+++ (≥350)” and the Emax lay within 100 to 200%. Further, the EC50 under setting [1] lay in the range of 1 to 10 µM. Further, the EC50 under setting [2] is < 1 µM.

Consider `COc1ncc(Br)cc1CN[C@H]1[C@H](C(C)(C)C)[C@@H](C(=O)O)N(C(=O)[C@@H]2CCCCO2)[C@H]1c1ccccc1C` [Example I-287], for which the “Maximum % activity (with co-corrector)” value is reported as “+++ (≥350)” and the Emax was > 200%. Also, under setting [1], the EC50 was 1 to 10 µM. The EC50 under setting [2] is < 1 µM.

`COc1ncc(C(F)(F)F)cc1CN[C@H]1[C@H](C(C)(C)C)[C@@H](C(=O)O)N(C(=O)[C@@H]2CCCCO2)[C@H]1c1ccccc1Br` [Example I-288]: the “Maximum % activity (with co-corrector)” value was “+++ (≥350)” and the Emax fell in the range of 100 to 200%. The concentration giving a half-maximal response (EC50) under setting [1] lay within 1 to 10 µM. In addition, the EC50 under setting [2] is < 1 µM.

In the case of `COc1cc(C(F)(F)F)ccc1CN[C@H]1[C@H](C(C)(C)C)[C@@H](C(=O)O)N(C(=O)[C@@H]2CCCCO2)[C@H]1c1ccccc1Br` [Example I-289], the “Maximum % activity (with co-corrector)” value is listed as “+++ (≥350)” and the Emax was 100 to 200%. Moreover, the EC50 under setting [1] is 1 to 10 µM. Under setting [2], the EC50 is < 1 µM.

On to `COc1ccc(C(F)(F)F)cc1CN[C@H]1[C@H](C(C)(C)C)[C@@H](C(=O)O)N(C(=O)[C@@H]2CCCCO2)[C@H]1c1ccccc1Br` [Example I-290], for which the “Maximum % activity (with co-corrector)” value is recorded as “+++ (≥350)” and the Emax is > 200%. Under setting [1], the EC50 lay within 1 to 10 µM. The half-maximal effective concentration (EC50) under setting [2] fell in the range of 1 to 10 µM.

Consider `COc1ncc(C2CCC2)cc1CN[C@H]1[C@H](C(C)(C)C)[C@@H](C(=O)O)N(C(=O)[C@@H]2CCCCO2)[C@H]1c1ccccc1Br` [Example I-291], for which the “Maximum % activity (with co-corrector)” value is recorded as “+++ (≥350)” and the Emax was 100 to 200%. Also, the concentration for a half-maximal effect (EC50) under setting [1] was < 1 µM. Further, the EC50 under setting [2] is < 1 µM.

As to `COc1ncc(C(F)(F)F)cc1CN[C@H]1[C@H](C(C)(C)C)[C@@H](C(=O)O)N(C(=O)[C@@H]2CCCO2)[C@H]1c1ccccc1Br` [Example I-292], the “Maximum % activity (with co-corrector)” value is recorded as “+++ (≥350)” and the Emax is 100 to 200%. The EC50 under setting [1] lay in the range of 1 to 10 µM. For the same molecule, under setting [2], the concentration giving a half-maximal response (EC50) was < 1 µM.

On to `COc1ncc(C2CC2)cc1CN[C@H]1[C@H](C(C)(C)C)[C@@H](C(=O)O)N(C(=O)[C@@H]2CCCO2)[C@H]1c1ccccc1Br` [Example I-293], for which the “Maximum % activity (with co-corrector)” value is listed as “+++ (≥350)” and the Emax is > 200%. Also, the concentration for a half-maximal effect (EC50) under setting [1] lay within 1 to 10 µM. Moreover, the concentration giving a half-maximal response (EC50) under setting [2] is 1 to 10 µM.

Take `COc1ccc(C(C)(C)C)cc1CN[C@H]1[C@H](C(C)(C)C)[C@@H](C(=O)O)N(C(=O)[C@@H]2CCCO2)[C@H]1c1ccccc1Br` [Example I-294]: the “Maximum % activity (with co-corrector)” value is listed as “+++ (≥350)” and the Emax is > 200%. Also, the concentration giving a half-maximal response (EC50) under setting [1] was 1 to 10 µM. In addition, under setting [2], the EC50 is < 1 µM.

On to `COc1ccc(C2(C)CCC2)cc1CN[C@H]1[C@H](C(C)(C)C)[C@@H](C(=O)O)N(C(=O)[C@@H]2CCCO2)[C@H]1c1ccccc1Br` [Example I-295], for which the “Maximum % activity (with co-corrector)” value is given as “+++ (≥350)” and the Emax is > 200%. Further, the EC50 under setting [1] lay within 1 to 10 µM. The 50% effective concentration (EC50) under setting [2] is < 1 µM.

These data come from patent US20180099931A1 (AbbVie S.à.r.l., priority 2016, published 2018).
